Patent publication US10688082B2, “Aminopyrazine compounds with A2A antagonist properties” (Merck Sharp & Dohme Corp., priority 2015, dated 2020)

The compounds below were run against T1, human A2a receptor (Homo sapiens, UniProt P29274) (assay: Competition binding assay using Scintillation Proximity technology (A2a activity)). Conditions: membranes from HEK293 cells expressing the human A2a receptor; 0.5 nM tritiated ligand; Cheng-Prusoff.
T1 construct: purchased Perkin-Elmer RBHA2AM400UA; host or cells: HEK293 cells (membranes)
T1 sequence (P29274 whole entry): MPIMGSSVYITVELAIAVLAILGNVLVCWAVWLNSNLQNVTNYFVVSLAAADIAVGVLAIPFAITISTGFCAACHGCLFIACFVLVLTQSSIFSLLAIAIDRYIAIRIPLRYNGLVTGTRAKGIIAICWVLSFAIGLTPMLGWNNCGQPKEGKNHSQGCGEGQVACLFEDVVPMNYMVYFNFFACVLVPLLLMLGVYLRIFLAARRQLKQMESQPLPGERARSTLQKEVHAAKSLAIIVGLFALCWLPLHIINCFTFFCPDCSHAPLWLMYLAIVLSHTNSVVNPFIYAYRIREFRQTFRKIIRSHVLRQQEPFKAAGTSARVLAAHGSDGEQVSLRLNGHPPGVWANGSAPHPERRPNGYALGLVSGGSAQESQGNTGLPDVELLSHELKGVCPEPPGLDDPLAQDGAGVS
Description: Binding affinities of compounds of the invention for the human A2a receptor were determined in a competition binding assay using Scintillation Proximity technology. Thus, […] from HEK293 cells expressing the human A2a receptor were incubated with a compound of the invention at concentrations ranging from 3000 nM to 0.15 nM in a reaction mixture containing also 0.5 nM of a tritiated form of 5-amino-7-[2-phenethyl]-2-(furan-2-yl)-7H-pyrazolo[4,3-e][1,2,4]triazolo[1,5-c]pyrimidine (the tritiated compound) and 100 μg of wheat germ agglutin-coated yttrium silicate SPA beads for one hour at room temperature with agitation. The beads were then allowed to settle to the bottom of the wells for 1 hr, after which the membrane-associated radioactivity was determined by scintillation counting in a TopCount microplate reader. Ki values were determined using the Cheng-Prusoff equation.
HEK293 cells expressing the human, rat, dog or monkey adenosine 2a receptor (Purchased from Perkin-Elmer # RBHA2AM400UA).
The Tritiated compound was prepared according to published methods.
Wheat germ agglutinin-coated yttrium silicate SPA beads (GE Healthcare # RPNQ0023). Dilute to 25 mg/ml in assay buffer.
Assay Buffer was prepared using Dulbecco's calcium and magnesium free phosphate buffered saline+10 mM MgCl2
Adenosine deaminase from calf intestine, 10 mg/2 ml (Roche #10 102 105 001).
A2a antagonist standard (9-chloro-1-(2-furanyl)-[1,2,4]triazolo1,5-c]quinazolin-5-amine from Tocris Bioscience)
Make eight 1:3 serial dilutions in 100% DMSO from a 3 mM compound stock
Transfer 50 nl of compound into a 384-well OptiPlate (Perkin Elmer).
Typically, final concentrations of compound used in the assay ranged from 3000 nM to 0.152 nM.
Dilute a solution of the Tritiated compound to 1.25 nM in assay buffer. This is a 2.5× solution. The final concentration in the assay is 0.5 nM. Calculate the concentration by counting two 5 μl aliquots.
Use 0.25 ug of membrane/well. Dilute membranes to 9.7 μg/ml in assay buffer. Treat with 20 ug/ml adenosine deaminase (ADA) for 15 minutes at room temperature to degrade endogenous adenosine.
Use 100 μg/well wheat germ agglutinin-coated yttrium silicate SPA beads.
Mix ADA-treated membranes and SPA beads together for 30 min prior to assay.
To the Perkin-Elmer Optiplate-384 containing the compound titration add 20 μl of 2.5× solution of the Tritiated compound and 30 μl of the membrane-bead mixture. Incubate for one hour at room temperature with agitation.
Include total binding (assay buffer+1% DMSO) and non-specific binding (CGS15943, 1 μM) wells.
Allow the beads to settle for one hour.
A curve fitting program (i.e., Prism, Activity Base, Chemcart) is used to determine the EC50. The Ki value is calculated using the Cheng-Prusoff equation. K i=EC50/(1+(radioligand concentration/Kd))

| Ki | Structure (SMILES) |
| --- | --- |
| 5 nM | COc1cccc2c1nc(N)n1nc(Cc3cccc4[nH]ccc34)cc21 [Ex-41, 2-((1H-indol-4-yl)methyl)-7-methoxypyrazolo[1,5-c]quinazolin-5-amine] |
| 3 nM | COc1cccc2c1nc(N)n1nc(Cc3c(F)cccc3F)cc21 [Ex-42, 2-(2,6-difluorobenzyl)-7-methoxypyrazolo[1,5-c]quinazolin-5-amine] |
| 80 nM | COc1cccc2c1nc(N)n1nc(Cc3cccc(Cl)c3Cl)cc21 [Ex-43, 2-(2,3-dichlorobenzyl)-7-methoxypyrazolo[1,5-c]quinazolin-5-amine] |
| 18 nM | COc1cccc2c1nc(N)n1nc(Cc3cccc4cnccc34)cc21 [Ex-44, 2-(isoquinolin-5-ylmethyl)-7-methoxypyrazolo[1,5-c]quinazolin-5-amine] |
| 10 nM | COc1cccc2c1nc(N)n1nc(Cc3ccccc3Cl)cc21 [Ex-45, 2-(2-chlorobenzyl)-7-methoxypyrazolo[1,5-c]quinazolin-5-amine] |
| 34 nM | COc1cccc2c1nc(N)n1nc(Cc3ccccc3OC(F)(F)F)cc21 [Ex-46, 7-methoxy-2-(2-(trifluoromethoxy)benzyl)pyrazolo[1,5-c]quinazolin-5-amine] |
| 1 nM | COc1cccc2c1nc(N)n1nc(Cc3ccccc3N(C)C)cc21 [Ex-47, 2-(2-(dimethylamino)benzyl)-7-methoxypyrazolo[1,5-c]quinazolin-5-amine] |
| 40 nM | COCc1cccc(Cc2cc3c4cccc(OC)c4nc(N)n3n2)c1 [Ex-48, 7-methoxy-2-(3-(methoxymethyl)benzyl)pyrazolo[1,5-c]quinazolin-5-amine] |
| 35 nM | COc1cccc2c1nc(N)n1nc(Cc3cccc(Cl)c3)cc21 [Ex-49, 2-(3-chlorobenzyl)-7-methoxypyrazolo[1,5-c]quinazolin-5-amine] |
| 2 nM | COc1cccc2c1nc(N)n1nc(Cc3ccccc3C#N)cc21 [Ex-50, 2-((5-amino-7-methoxypyrazolo[1,5-c]quinazolin-2-yl)methyl)benzonitrile] |
| 128 nM | COc1cccc2c1nc(N)n1nc(Cc3ccccc3OCc3ccccc3)cc21 [Ex-51, 2-(2-(benzyloxy)benzyl)-7-methoxypyrazolo[1,5-c]quinazolin-5-amine] |
| 33 nM | COc1cccc2c1nc(N)n1nc(Cc3cccc(C#N)c3)cc21 [Ex-52, 3-((5-amino-7-methoxypyrazolo[1,5-c]quinazolin-2-yl)methyl)benzonitrile] |
| 48 nM | COc1cccc2c1nc(N)n1nc(Cc3cccc4ccsc34)cc21 [Ex-53, 2-(benzo[b]thiophen-7-ylmethyl)-7-methoxypyrazolo[1,5-c]quinazolin-5-amine] |
| 139 nM | COc1cccc2c1nc(N)n1nc(Cc3cccc(-n4nc(C)cc4C)c3)cc21 [Ex-54, 2-(3-(3,5-dimethyl-1H-pyrazol-1-yl)benzyl)-7-methoxypyrazolo[1,5-c]quinazolin-5-amine] |
| 10 nM | COc1cccc2c1nc(N)n1nc(Cc3ccccc3OC(F)F)cc21 [Ex-55, 2-(2-(difluoromethoxy)benzyl)-7-methoxypyrazolo[1,5-c]quinazolin-5-amine] |
| 49 nM | COc1cccc2c1nc(N)n1nc(Cc3cccc4c3CNC4=O)cc21 [Ex-56, 4-((5-amino-7-methoxypyrazolo[1,5-c]quinazolin-2-yl)methyl)isoindolin-1-one] |
| 165 nM | COc1cccc2c1nc(N)n1nc(Cc3cccc4nc(C)ccc34)cc21 [Ex-57, 7-methoxy-2-((2-methylquinolin-5-yl)methyl)pyrazolo[1,5-c]quinazolin-5-amine] |
| 69 nM | COc1cccc2c1nc(N)n1nc(Cc3cccc(-n4cccn4)c3)cc21 [Ex-58, 2-(3-(1H-pyrazol-1-yl)benzyl)-7-methoxypyrazolo[1,5-c]quinazolin-5-amine] |
| 21 nM | COc1cccc2c1nc(N)n1nc(Cc3cccc(F)c3C)cc21 [Ex-59, 2-(3-fluoro-2-methylbenzyl)-7-methoxypyrazolo[1,5-c]quinazolin-5-amine] |

| Ki | Structure (SMILES) |
| --- | --- |
| 22 nM | COc1cccc2c1nc(N)n1nc(Cc3cccc4ccc(C)nc34)cc21 [Ex-60, 7-methoxy-2-((2-methylquinolin-8-yl)methyl)pyrazolo[1,5-c]quinazolin-5-amine] |
| 21 nM | COc1cccc2c1nc(N)n1nc(Cc3cccc(C#N)c3F)cc21 [Ex-61, 3-((5-amino-7-methoxypyrazolo[1,5-c]quinazolin-2-yl)methyl)-2-fluorobenzonitrile] |
| 134 nM | COc1cccc2c1nc(N)n1nc(Cc3cc(Cl)cc(C#N)c3)cc21 [Ex-62, 3-((5-amino-7-methoxypyrazolo[1,5-c]quinazolin-2-yl)methyl)-5-chlorobenzonitrile] |
| 7 nM | COc1cccc2c1nc(N)n1nc(Cc3ccccc3-n3cccn3)cc21 [Ex-63, 2-(2-(1H-pyrazol-1-yl)benzyl)-7-methoxypyrazolo[1,5-c]quinazolin-5-amine] |
| 2 nM | COc1cccc2c1nc(N)n1nc(Cc3cc(F)ccc3F)cc21 [Ex-64, 2-(2,5-difluorobenzyl)-7-methoxypyrazolo[1,5-c]quinazolin-5-amine] |
| 5 nM | COc1cccc2c1nc(N)n1nc(Cc3cc(F)cc(F)c3)cc21 [Ex-65, 2-(3,5-difluorobenzyl)-7-methoxypyrazolo[1,5-c]quinazolin-5-amine] |
| 145 nM | COc1cccc2c1nc(N)n1nc(CN3CCN(c4ccccc4)CC3)cc21 [Ex-66, 7-methoxy-2-((4-phenylpiperazin-1-yl)methyl)pyrazolo [1,5-c]quinazolin-5-amine] |
| 473 nM | COc1cccc2c1nc(N)n1nc(CN3CC(O)C3)cc21 [Ex-67, 1-((5-amino-7-methoxypyrazolo[1,5-c]quinazolin-2-yl)methyl)azetidin-3-ol] |
| 24 nM | COc1cccc2c1nc(N)n1nc(CN3Cc4ccc(F)cc4C3)cc21 [Ex-68, 2-((5-fluoroisoindolin-2-yl)methyl)-7-methoxypyrazolo[1,5-c]quinazolin-5-amine] |
| 14 nM | COc1cccc2c1nc(N)n1nc(CN3Cc4cccnc4C3)cc21 [Ex-69, 2-((5,7-dihydro-6H-pyrrolo[3,4-b]pyridin-6-yl)methyl)-7-methoxypyrazolo[1,5-c]quinazolin-5-amine] |
| 11 nM | COc1cccc2c1nc(N)n1nc(C(=O)N3CCN(Cc4ccccc4)CC3)cc21 [Ex-71, (5-amino-7-methoxypyrazolo[1,5-c]quinazolin-2-yl)(4-benzylpiperazin-1-yl)methanone] |
| 37 nM | COc1cccc2c1nc(N)n1nc(C(=O)N3CCCCC3)cc21 [Ex-72, (5-amino-7-methoxypyrazolo[1,5-c]quinazolin-2-yl)(piperidin-1-yl)methanone] |
| 11 nM | COc1cccc2c1nc(N)n1nc(C(=O)N3CCN(Cc4ccc(F)cc4)CC3)cc21 [Ex-73, (5-amino-7-methoxypyrazolo[1,5c]-quinazolin-2-yl)(4-(4-fluorobenzyl)-piperazin-1-yl)methanone] |
| 5 nM | COc1cccc2c1nc(N)n1nc(C(=O)N3CCCC3)cc21 [Ex-74, (5-amino-7-methoxypyrazolo[1,5-c]quinazolin-2-yl)(pyrrolidin-1-yl)methanone] |
| 20 nM | COc1cccc2c1nc(N)n1nc(C(=O)N3CCN(C(=O)OC(C)(C)C)CC3)cc21 [Ex-75, tert-butyl 4-(5-amino-7-methoxypyrazolo[1,5-c]quinazoline-2-carbonyl)piperazine-1-carboxylate] |
| 300 nM | COc1cccc2c1nc(N)n1nc(C(=O)N3CCNCC3)cc21 [Ex-76, (5-amino-7-methoxypyrazolo[1,5-c]quinazolin-2-yl)(piperazin-1-yl)methanone] |
| 2 nM | COc1cccc2c1nc(N)n1nc(C(=O)NCc3ccc(F)cc3F)cc21 [Ex-77, 5-amino-N-(2,4-difluorobenzyl)-7-methoxypyrazolo[1,5-c]quinazoline-2-carboxamide] |
| 0.3 nM | COc1cccc2c1nc(N)n1nc(C(=O)N3CCN(c4ccc(F)cc4F)CC3)cc21 [Ex-78, (5-amino-7-methoxypyrazolo[1,5-c]quinazolin-2-yl)(4-(2,4-difluorophenyl)piperazin-1-yl)methanone] |

Same assay, conditions: same protocol

| Ki | Structure (SMILES) |
| --- | --- |
| 7 nM | COc1cccc2c1nc(N)n1nc(C(=O)N3CCN(c4ccccn4)CC3)cc21 [Ex-70, (5-amino-7-methoxypyrazolo[1,5-c]quinazolin-2-yl)(4-(pyridin-2-yl)piperazin-1-yl)methanone] |
